Test results as given in patent publication US7884136B2, “Modified-release formulations of a bupropion salt” (Biovail Laboratories International S.R.L., priority 2005, dated 2011).

What was measured:
[1] = Moisture content of bupropion salts by KF; format: physicochemical
Experimental: (§1) The eight salts were first evaluated by HPLC, KF, pH and DSC for purity, water content, aqueous pH and possible polymorphs.
(§2) The salts were analysed by DSC (at 10° C./min from 30° C. up to 400° C.) and the pH (aq. 0.5%), and the moisture content by KF were also measured. The TGA was performed on the HCl, maleate, tosylate and HBr salts.

[2] = pH of 0.5% aqueous solution of bupropion salts; format: physicochemical
Experimental: as §1, §2

[3] = Solubility of Bupropion HBr vs Bupropion HCl in water, EtOH, IPA; format: physicochemical
[4] = Dynamic Vapour Sorption (DVS) hygroscopicity of bupropion HBr; format: physicochemical; details: for DVS: water uptake / hygroscopicity (words): range 0% RH-90% RH, hydrobromide
[5] = Forced degradation stability study of bupropion salts spiked with placebo/excipients, closed vials, 40° C./75% RH, HPLC assay and impurities
Experimental: The stability of the salts was evaluated based on the formation of the main degradation products (see below) as determined by HPLC analysis and the % potency (or assay) of the API, after specific time periods in the stability chamber. The effect of the addition of solvents, such as water, ethanol and isopropyl alcohol, was also studied.
The samples of each salt and the spiked salts with the bupropion HCl XL were prepared under the conditions mentioned in Table 4. […] The stability of the bupropion salts were evaluated based on the formation of the main degradation product 3-chlorobenzoic acid (3-CBZ) and the intermediate degradation products diketone 827U76 and the ketohydroxyl derivatives (20U78 and 852U77) (Scheme 2).
As mentioned above, the stability samples were prepared in 2 mL vials and used directly for assay and impurity analysis by HPLC without further sample preparations to minimize errors.

[6] = Comparative forced degradation of bupropion HCl and HBr API salts, closed glass bottle, 40° C./75% RH, HPLC; format: physicochemical; details: for % Assay / % Impurities 3-CBZ / % Impurities 20U78/dilu / % Impurities 827U76 / % Impurities 852U77 / % Impurities Total unknown / Total (%) impurities: closed glass bottle
Experimental: Further stability tests were performed by directly comparing bupropion HBr and bupropion HCl salts in forced degradation studies. […] At specified times, the material in the bottles was analyzed for the presence of degradation products and % potency (% assay).
The samples were exposed to the above conditions in a closed bottle for few days, and then subjected to HPLC analysis. The amount of the main degradation products present after treatment were compared with those amounts that were present initially.
The samples were analysed after 14 and 24 days (study-1) and 10 days (study II), in a quantitative manner by direct treatment of the whole content of the bottle as per the HPLC standard test method (P05.901.10).

[7] = Release of bupropion base from bupropion HCl and HBr; format: physicochemical
Experimental: It was previously observed that when 150 mg of bupropion HCl was tested for its release of bupropion, the base value that was released was 130 mg.

[8] = Forced degradation of bupropion HBr and HCl in the presence of excipients at 55° C., 55° C./100% RH, 100° C. and 105° C.; format: physicochemical; details: 24 and 48 hours at 55° C., 105 degrees C., hydrobromide
Experimental: Forced degradation studies were also performed on bupropion HBr and bupropion HCl API's in the presence of standard excipients used in pharmaceutical formulations.
Further forced degradation studies were carried out at 55° C., at 55° C. and 100% relative humidity, at 100° C., and at 105° C. on both the HCl and HBr Bupropion salts in the presence of excipients. The average weight of the excipients and the weight of the active pharmaceutical ingredient (API) present in the samples are presented in Table 72. […] FIG. 53 is a graph showing the loss of each salt over time in a TGA experiment at 100° C.

[9] = In IPA/EtOH, 32 days, closed vials
[10] = In water, 32 days, closed vials
[11] = salt plus excipients, 20 days, closed vial, 40° C./75% RH
[12] = repeat study, 40 C/75% RH, 10 Days, Lot# STN07491, hydrobromide
[13] = repeat study, 40 C/75% RH, 10 Days, Lot# STN07492, hydrobromide
[14] = repeat study, 40 C/75% RH, Initial, Lot# STN07491, hydrobromide
[15] = repeat study, 40 C/75% RH, Initial, Lot# STN07492, hydrobromide

## Br.CC(NC(C)(C)C)C(=O)c1cccc(Cl)c1 (stereo not drawn) [Bupropion HBr, bupropion hydrobromide]
[1]; Table 3, supplier API
  Moisture Content (KF): 0.00%
[1]; original API salts
  KF (moisture content), Original (Initial APIs): 0.00%
[2]; 0.5% aqueous solution, original API salts
  pH (aq. 0.5%), Original (Initial APIs): 5.92
[2]; Table 3, supplier API
  pH (aq. 0.5%): 5.92
[3]; EtOH
  Solubility, EtOH: 92 mg/mL
[3]; IPA
  Solubility, IPA: 12 mg/mL
[3]; water
  Solubility, Water: 143 mg/mL
[4]; at 90% RH
  DVS: maximum water uptake: 0.14 % weight
[4]; listed as HBr
  DVS: water uptake / hygroscopicity (words): non-hygroscopic
[4]; listed as bupropion HBr
  DVS: water uptake / hygroscopicity (words): no significant water uptake
[5]; DS and excipients spiked with IPA & EtOH, 32 days, closed vials, 40° C.
  Order of stability (assay) with IPA & EtOH: HCl>HBr>tosylate>maleate>fumarate
[5]; DS and excipients spiked with water, 32 days, closed vials, 40° C.
  Order of stability (assay) with water: tosylate>maleate>HCl>HBr>fumarate
[5]; DS and spiked DS, 40° C./75% RH
  Stability in the forced degradation stability studies, overall: superior stability in a closed container
[5]; [9]
  Content of impurity 3-CBZ, order of salts: maleate > HBr > HCl > Fumarate
  Content of impurity 852U77, order of salts: fumarate > HBr ≈ HCl ≈ maleate ≈ tosylate
  Total imp., order of salts: fumarate > maleate > HBr > HCl > tosylate
[5]; [10]
  Content of impurity 3-CBZ, order of salts: HCl > HBr ≈ maleate ≈ fumarate
  Content of impurity 852U77, order of salts: fumarate > HBr > maleate > HCl
  Total imp., order of salts: fumarate > HBr > HCl > tosylate > maleate
[5]; open and closed vials, 40 degrees C./75% RH, 'after at least 3 months or after at least 6 months'
  Degradation products and retained activity compared with all salts tested: least amount of degradation products
[5]; [11]
  Impurities (3-CBZ, 852U77 & total) compared to the other salts: lowest
  Order of stability (assay, % potency): HBr>HCl=tosylate>fumarate>maleate
[6]; closed bottles, 40 degrees C. and 75% relative humidity
  Impurities and % potency compared to the HCl salt: amount of impurities was consistently lower and the % potency was consistently higher
[6]; 40° C./75% RH, 14-Days
  % Assay: 98.8%
  % Impurities 3-CBZ: 0.015%
  % Impurities 20U78/dilu: 0.048%
  % Impurities 827U76: 0.012%
  % Impurities 852U77: 0.058%
  % Impurities Total unknown: 0.105%
  Total (%) impurities: 0.23%
[6]; 40° C./75% RH, 24 Days
  % Assay: 99.5%
  % Impurities 3-CBZ: 0.022%
  % Impurities 20U78/dilu: 0.038%
  % Impurities 827U76: 0.016%
  % Impurities 852U77: 0.052%
  % Impurities Total unknown: 0.104%
  Total (%) impurities: 0.23%
[6]; 40° C./75% RH, Initial
  % Assay: 99.6%
  % Impurities 3-CBZ: 0.007%
  % Impurities 20U78/dilu: 0.044%
  % Impurities 852U77: 0.009%
  % Impurities Total unknown: 0.098%
  Total (%) impurities: 0.16%
[6]; repeat study, 40 C/75% RH, 10 Days
  % Impurities 827U76: 0.039%
[6]; [12]
  % Assay: 98.2%
  % Impurities 3-CBZ: 0.070%
  % Impurities 20U78/dilu: 0.051%
  % Impurities 852U77: 0.125%
  % Impurities Total unknown: 0.129%
  Total (%) impurities: 0.42%
[6]; [13]
  % Assay: 99.2%
  % Impurities 3-CBZ: 0.031%
  % Impurities 20U78/dilu: 0.044%
  % Impurities 852U77: 0.055%
  % Impurities Total unknown: 0.15%
  Total (%) impurities: 0.24%
[6]; repeat study, 40 C/75% RH, Initial
  % Impurities 20U78/dilu: 0.041%
[6]; [14]
  % Assay: 99.5%
  % Impurities 3-CBZ: 0.011%
  % Impurities Total unknown: 0.129%
  Total (%) impurities: 0.17%
[6]; [15]
  % Assay: 99.6%
  % Impurities 3-CBZ: 0.007%
  % Impurities Total unknown: 0.194%
  Total (%) impurities: 0.23%
[7]; 150 mg of the salt tested
  Base value of bupropion released: 112 mg
[7]; 174 mg of the salt tested
  Base value of bupropion released: 130 mg
[8]; listed as HBr
  Degradation in the presence of excipients (formation of impurities, words): lowest amount of degradation
[8]; listed as bupropion HBr
  Degradation in the presence of excipients (formation of impurities, words): significant improvements in stability compared to bupropion HCl
